In ChEMBL document CHEMBL1138104, “Isolation, structure elucidation, antioxidative and immunomodulatory properties of two novel dihydrocoumarins from Aloe vera” (Bioorg Med Chem Lett, 2006):
Activity calls are given as the source filed them. The calls are words filed in the database; no cut-off is given here.

Columns and labels:
[1] = test system: Radical scavenging activity; assay: Inhibition of hydroxyl radical scavenging activity; format: functional; conditions: dose or concentration not given here
[2] = test system: Radical scavenging activity; assay: Inhibition of superoxide radical scavenging activity; format: functional; conditions: dose or concentration not given here
[3] = test system: Peritoneal macrophage cell; assay: Enhancement of respiratory burst in rat peritoneal macrophage at 200 uM; format: functional, cell-based
[4] = test system: Peritoneal macrophage cell; assay: Phagocytic function of rat peritoneal macrophage at 50-200 ug/ml; format: functional, cell-based

Q: Which inhibition [1] does the source give for CCOC(=O)C[C@H](c1ccc(O)cc1)c1c(O)cc(O)c(-c2cc(OC)cc(=O)o2)c1C here?
A: Its inhibition is 42.3%.

Q: What about the inhibition [2] of the same compound?
A: Its inhibition is 30.3%.

Q: And the Activity [3]?
A: Its Activity is “inactive”.

Q: What does the source list for COc1cc(-c2c(O)cc3c(c2C)[C@@H](c2ccc(O)cc2)CC(=O)O3)oc(=O)c1?
A: Activity [4]: Dose-dependent effect; inhibition [1]: 43.7%; inhibition [2]: 42.3%; Activity [3]: Active
